Laboratory results reported in ChEMBL document CHEMBL5346943, “Discovery and Structural Optimization of Novel Quinolone Derivatives as Potent Irreversible Pan-Fibroblast Growth Factor Receptor Inhibitors for Treating Solid Tumors” (J Med Chem, 2023).
Active and inactive are the calls of the source. No cut-off for these calls is given here.

Key:
[1] = molecular target: Fibroblast growth factor receptor 2 (Homo sapiens, UniProt P21802); assay: Inhibition of FGFR2 (unknown origin) incubated for 10 mins followed by substrate addition measured after 60 mins by ADP-Glo luminescence assay
Chain of Fibroblast growth factor receptor 2 (P21802 whole entry): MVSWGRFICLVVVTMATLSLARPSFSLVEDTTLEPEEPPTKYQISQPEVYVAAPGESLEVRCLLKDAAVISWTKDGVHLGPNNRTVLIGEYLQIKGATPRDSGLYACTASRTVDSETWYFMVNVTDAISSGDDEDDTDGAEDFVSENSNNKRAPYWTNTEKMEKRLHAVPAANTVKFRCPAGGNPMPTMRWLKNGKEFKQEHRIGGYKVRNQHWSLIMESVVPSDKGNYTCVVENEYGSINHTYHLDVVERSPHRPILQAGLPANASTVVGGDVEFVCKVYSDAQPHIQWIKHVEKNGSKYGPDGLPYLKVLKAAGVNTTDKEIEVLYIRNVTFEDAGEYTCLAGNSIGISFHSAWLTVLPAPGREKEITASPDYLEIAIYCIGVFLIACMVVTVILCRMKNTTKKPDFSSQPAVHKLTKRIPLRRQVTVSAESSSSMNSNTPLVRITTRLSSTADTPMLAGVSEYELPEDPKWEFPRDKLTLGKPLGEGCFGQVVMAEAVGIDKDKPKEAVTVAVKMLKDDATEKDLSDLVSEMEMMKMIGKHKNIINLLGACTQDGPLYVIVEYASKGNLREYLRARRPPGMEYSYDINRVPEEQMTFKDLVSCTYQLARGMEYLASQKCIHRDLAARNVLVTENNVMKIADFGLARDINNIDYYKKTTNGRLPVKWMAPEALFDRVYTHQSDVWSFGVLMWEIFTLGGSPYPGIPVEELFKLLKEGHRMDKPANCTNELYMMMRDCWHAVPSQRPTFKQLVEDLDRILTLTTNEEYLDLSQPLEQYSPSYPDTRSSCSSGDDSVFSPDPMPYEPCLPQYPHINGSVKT

[2] = molecular target: Fibroblast growth factor receptor 4 (Homo sapiens, UniProt P22455); assay: Inhibition of FGFR4 (unknown origin) incubated for 10 mins followed by substrate addition measured after 60 mins by ADP-Glo luminescence assay
Chain of Fibroblast growth factor receptor 4 (P22455 whole entry): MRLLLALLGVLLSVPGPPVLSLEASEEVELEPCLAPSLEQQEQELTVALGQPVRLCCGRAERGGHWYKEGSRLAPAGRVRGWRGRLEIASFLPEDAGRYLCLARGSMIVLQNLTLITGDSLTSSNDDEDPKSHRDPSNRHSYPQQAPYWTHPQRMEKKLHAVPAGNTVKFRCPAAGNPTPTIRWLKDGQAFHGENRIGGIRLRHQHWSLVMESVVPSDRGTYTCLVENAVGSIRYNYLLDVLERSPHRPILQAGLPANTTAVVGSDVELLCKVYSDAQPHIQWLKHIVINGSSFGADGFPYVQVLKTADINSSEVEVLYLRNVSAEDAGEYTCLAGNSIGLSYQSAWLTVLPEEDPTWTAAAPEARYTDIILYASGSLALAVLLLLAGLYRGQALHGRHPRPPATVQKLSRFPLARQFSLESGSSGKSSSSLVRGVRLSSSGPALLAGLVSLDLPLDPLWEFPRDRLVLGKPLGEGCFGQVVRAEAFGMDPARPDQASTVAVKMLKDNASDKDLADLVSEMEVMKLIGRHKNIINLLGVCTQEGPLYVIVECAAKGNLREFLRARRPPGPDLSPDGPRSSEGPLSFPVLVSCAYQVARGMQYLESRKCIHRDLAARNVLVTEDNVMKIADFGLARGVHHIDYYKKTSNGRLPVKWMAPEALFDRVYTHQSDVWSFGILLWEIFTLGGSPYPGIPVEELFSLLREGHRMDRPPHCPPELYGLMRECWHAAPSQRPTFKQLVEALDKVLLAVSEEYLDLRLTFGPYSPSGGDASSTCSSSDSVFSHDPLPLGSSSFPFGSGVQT

Hep 3B2 = assay: Antiproliferative activity against human Hep3B cells incubated for 72 hrs by Cell counting kit 8 method; type: functional, cell-based
[3] = molecular target: Fibroblast growth factor receptor 3 (Homo sapiens, UniProt P22607); assay: Inhibition of FGFR3 (unknown origin) incubated for 10 mins followed by substrate addition measured after 60 mins by ADP-Glo luminescence assay
Chain of Fibroblast growth factor receptor 3 (P22607 whole entry): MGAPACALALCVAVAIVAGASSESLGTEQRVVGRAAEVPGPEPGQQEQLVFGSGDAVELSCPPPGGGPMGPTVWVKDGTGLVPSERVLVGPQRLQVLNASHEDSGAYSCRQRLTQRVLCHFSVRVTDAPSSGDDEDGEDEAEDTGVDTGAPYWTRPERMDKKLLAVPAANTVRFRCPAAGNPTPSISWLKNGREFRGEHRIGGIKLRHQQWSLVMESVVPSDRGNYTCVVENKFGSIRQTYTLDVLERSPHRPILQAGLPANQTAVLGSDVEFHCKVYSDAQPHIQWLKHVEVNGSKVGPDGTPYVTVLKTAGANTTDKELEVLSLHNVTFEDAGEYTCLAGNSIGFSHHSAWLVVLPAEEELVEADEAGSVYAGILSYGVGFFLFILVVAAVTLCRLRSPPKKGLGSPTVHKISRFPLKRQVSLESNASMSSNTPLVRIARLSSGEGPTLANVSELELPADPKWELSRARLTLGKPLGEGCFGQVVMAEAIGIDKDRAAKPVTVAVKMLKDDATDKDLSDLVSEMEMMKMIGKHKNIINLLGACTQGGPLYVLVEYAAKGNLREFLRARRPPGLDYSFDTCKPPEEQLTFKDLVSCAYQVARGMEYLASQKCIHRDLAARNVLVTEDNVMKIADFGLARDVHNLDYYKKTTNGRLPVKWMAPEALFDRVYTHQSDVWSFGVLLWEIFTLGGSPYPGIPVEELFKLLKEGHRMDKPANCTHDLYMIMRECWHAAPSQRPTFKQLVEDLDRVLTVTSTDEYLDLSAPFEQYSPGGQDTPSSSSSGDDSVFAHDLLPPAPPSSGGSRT

[4] = Microsomal stability in human liver microsomes assessed as half life preincubated for 10 mins followed by NADPH addition measured upto 60 mins by LC-MS/MS analysis; type: ADME, Microsome; settings: time < 70 min
[5] = Ionization constant, pKa of the compound in PBS buffer at pH 1.42 to 12.33 by electrochemical method; type: physicochemical
[6] = C0 in Sprague-Dawley rat measured at 2 mg/kg, iv for 0.083 to 24 hrs by LC-MS/MS analysis; type: ADME, organism-based; settings: in vivo, time 0.083-24 hrs
[7] = Cmax in Sprague-Dawley rat measured at 2 mg/kg, iv for 0.083 to 24 hrs by LC-MS/MS analysis; type: ADME, organism-based; set-up: time upper 24 hrs, time lower 0.083 hrs, dose 2 mg/kg, route iv; settings: in vivo
[8] = Tmax in Sprague-Dawley rat measured at 2 mg/kg, iv for 0.083 to 24 hrs by LC-MS/MS analysis; type: ADME, organism-based; settings: in vivo, time 0.083-24 hrs
[9] = AUC (0 to t) in Sprague-Dawley rat measured at 2 mg/kg, iv for 0.083 to 24 hrs by LC-MS/MS analysis; type: ADME, organism-based; set-up: dose 2 mg/kg, time upper 24 hrs, time lower 0.083 hrs, route iv; settings: in vivo
[10] = AUC (0 to infinity) in Sprague-Dawley rat measured at 2 mg/kg, iv for 0.083 to 24 hrs by LC-MS/MS analysis; type: ADME, organism-based; set-up: time lower 0.083 hrs, dose 2 mg/kg, time upper 24 hrs, route iv; settings: in vivo
[11] = MRT (0 to t) in Sprague-Dawley rat measured at 2 mg/kg, iv for 0.083 to 24 hrs by LC-MS/MS analysis; type: ADME, organism-based; settings: in vivo, time 0.083-24 hrs
[12] = MRT (0 to infinity) in Sprague-Dawley rat measured at 2 mg/kg, iv for 0.083 to 24 hrs by LC-MS/MS analysis; type: ADME, organism-based; settings: in vivo, time 0.083-24 hrs
[13] = Clearance in Sprague-Dawley rat measured at 2 mg/kg, iv for 0.083 to 24 hrs by LC-MS/MS analysis; type: ADME, organism-based; settings: in vivo, time 0.083-24 hrs
[14] = Volume of distribution at steady state in Sprague-Dawley rat measured at 2 mg/kg, iv for 0.083 to 24 hrs by LC-MS/MS analysis; type: ADME, organism-based; settings: in vivo, time 0.083-24 hrs, read-out: Vdss
[15] = Cmax in Sprague-Dawley rat measured at 10 mg/kg, po for 0.083 to 24 hrs by LC-MS/MS analysis; type: ADME, organism-based; set-up: time 0.083-24 hrs, dose 10 mg/kg, route po; settings: in vivo
[16] = Half life in Sprague-Dawley rat measured at 10 mg/kg, po for 0.083 to 24 hrs by LC-MS/MS analysis; type: ADME, organism-based; settings: in vivo, time 0.083-24 hrs
[17] = AUC (0 to t) in Sprague-Dawley rat measured at 10 mg/kg, po for 0.083 to 24 hrs by LC-MS/MS analysis; type: ADME, organism-based; set-up: dose 10 mg/kg, time upper 24 hrs, time lower 0.083 hrs, route po; settings: in vivo
[18] = AUC (0 to infinity) in Sprague-Dawley rat measured at 10 mg/kg, po for 0.083 to 24 hrs by LC-MS/MS analysis; type: ADME, organism-based; set-up: dose 10 mg/kg, time upper 24 hrs, time lower 0.083 hrs, route po; settings: in vivo
[19] = MRT (0 to infinity) in Sprague-Dawley rat measured at 10 mg/kg, po for 0.083 to 24 hrs by LC-MS/MS analysis; type: ADME, organism-based; settings: in vivo, time 0.083-24 hrs
[20] = Oral bioavailability in Sprague-Dawley rat measured at 10 mg/kg for 0.083 to 24 hrs by LC-MS/MS analysis; type: ADME, organism-based; settings: in vivo, time 0.083-24 hrs
[21] = Cmax in Sprague-Dawley rat measured at 30 mg/kg, po for 0.083 to 24 hrs by LC-MS/MS analysis; type: ADME, organism-based; set-up: dose 30 mg/kg, time upper 24 hrs, time lower 0.083 hrs, route po; settings: in vivo
[22] = Cmax in Sprague-Dawley rat measured at 60 mg/kg, po for 0.083 to 24 hrs by LC-MS/MS analysis; type: ADME, organism-based; set-up: dose 60 mg/kg, time 0.083-24 hrs, route po; settings: in vivo
[23] = Cmax in Sprague-Dawley rat measured at 100 mg/kg, po for 0.083 to 24 hrs by LC-MS/MS analysis; type: ADME, organism-based; set-up: time upper 24 hrs, dose 100 mg/kg, time lower 0.083 hrs, route po; settings: in vivo
[24] = Half life in Sprague-Dawley rat measured at 30 mg/kg, po for 0.083 to 24 hrs by LC-MS/MS analysis; type: ADME, organism-based; settings: in vivo, time 0.083-24 hrs
[25] = Tmax in Sprague-Dawley rat measured at 30 mg/kg, po for 0.083 to 24 hrs by LC-MS/MS analysis; type: ADME, organism-based; settings: in vivo, time 0.083-24 hrs
[26] = Tmax in Sprague-Dawley rat measured at 100 mg/kg, po for 0.083 to 24 hrs by LC-MS/MS analysis; type: ADME, organism-based; settings: in vivo, time 0.083-24 hrs
[27] = AUC(0 to t) in Sprague-Dawley rat measured at 30 mg/kg, po for 0.083 to 24 hrs by LC-MS/MS analysis; type: ADME, organism-based; set-up: time 0.083-24 hrs, dose 30 mg/kg, route po; settings: in vivo
[28] = AUC(0 to t) in Sprague-Dawley rat measured at 60 mg/kg, po for 0.083 to 24 hrs by LC-MS/MS analysis; type: ADME, organism-based; set-up: time upper 24 hrs, time lower 0.083 hrs, dose 60 mg/kg, route po; settings: in vivo
[29] = AUC(0 to infinity) in Sprague-Dawley rat measured at 100 mg/kg, po for 0.083 to 24 hrs by LC-MS/MS analysis; type: ADME, organism-based; set-up: dose 100 mg/kg, time 0.083-24 hrs, route po; settings: in vivo
[30] = Antiproliferative activity against human RBE cells incubated for 72 hrs by Cell counting kit 8 method; type: functional, cell-based
MV4-11 = assay: Antiproliferative activity against human MV4-11 cells incubated for 72 hrs by Cell counting kit 8 method; type: functional, cell-based; settings: MV4-11, 72 h
HT-29 = assay: Antiproliferative activity against human HT-29 cells incubated for 72 hrs by Cell counting kit 8 method; type: functional, cell-based; settings: HT-29, 72 h
A549 = assay: Antiproliferative activity against human A549 cells incubated for 72 hrs by Cell counting kit 8 method; type: functional, cell-based; settings: A549, 72 h
NCI-H1581 = assay: Antiproliferative activity against human NCI-H1581 cells incubated for 72 hrs by Cell counting kit 8 method; type: functional, cell-based; settings: NCI-H1581, 72 h
SNU-16 = assay: Antiproliferative activity against human SNU-16 cells incubated for 72 hrs by Cell counting kit 8 method; type: functional, cell-based; settings: SNU-16, 72 h
Huh-7 [31] = assay: Antitumor activity against human Huh-7 cells xenografted in BALB/c nude mouse assessed as reduction in tumor growth once daily at 60 mg/kg, po for 24 days; type: functional, organism-based; settings: time 24.0 day
Huh-7 [32] = assay: Antitumor activity against human Huh-7 cells xenografted in BALB/c nude mouse assessed as tumor growth inhibition once daily at 60 mg/kg, po for 24 days relative to control; type: functional; set-up: scale not given: the % may be the effect or the level left; settings: time 24 day
Huh-7 [33] = assay: Antitumor activity against human Huh-7 cells xenografted in BALB/c nude mouse assessed as tumor growth inhibition once daily at 30 mg/kg, po for 24 days relative to control; type: functional; set-up: scale not given: the % may be the effect or the level left; settings: time 24 day
[34] = Toxicity in […] nude mouse xenografted with NCI-H1581 cells assessed as change in body weight once daily at 15 to 60 mg/kg, po for 24 days relative to control; type: organism-based; settings: in vivo, 576 h, dose 15-60 mg/kg, time 24 day

C=CC(=O)N1CCC(c2cc3c(Oc4ccc(NC(=O)NC5CC5)c(Cl)c4)ccnc3cc2OC)CC1
IC50 [1]: 3.1 nM
IC50 [2]: 1.8 nM
IC50 (Hep 3B2): 52.6 nM
IC50 [3]: 16 nM
half-life [4]: 61.9 min
pKa [5]: 5.77
C0 [6]: 3300 ng/mL
Cmax [7]: 1840 ng/mL
Tmax [8]: 4.8 min
AUC(0-t) [9]: 570 ng·h/mL
AUC(0-inf) [10]: 572 ng·h/mL
MRT last [11]: 10.8 min
MRT [12]: 11.4 min
clearance [13]: 58 mL/min/kg
Vd [14]: 1.32 L/kg
Cmax [15]: 1800 ng/mL
half-life [16]: 149 min
AUC(0-t) [17]: 1730 ng·h/mL
AUC(0-inf) [18]: 1970 ng·h/mL
MRT [19]: 3.16 h
bioavailability [20]: 60.7%
Cmax [21]: 6070 ng/mL
Cmax [22]: 7990 ng/mL
Cmax [23]: 14600 ng/mL
half-life [24]: 193 min
Tmax [25]: 30 min
Tmax [26]: 30 min
AUC(0-t) [27]: 7920 ng·h/mL
AUC(0-t) [28]: 14900 ng·h/mL
AUC(0-inf) [29]: 28200 ng·h/mL
IC50 [30]: 357 nM
IC50 (MV4-11): > 10 µM
IC50 (HT-29): 7.23 µM
IC50 (A549): > 10 µM
IC50 (NCI-H1581): < 0.31 nM
IC50 (SNU-16): 1.8 nM
Activity (Huh-7 [31]): Active
Activity (Huh-7 [32]): 88.2%
Activity (Huh-7 [33]): 89.6%
Activity [34]: Active
